System: vasopressor response of angiotensin II
Assay: AII Challenge: antagonism of angiotensin II vasopressor response;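 on Response Average Change: post-dose Angiotensin II-evoked rise in systolic blood pressure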
Assay type: in vivo
Details: for inhibition in vivo at 1 mg/kg / inhibition in vivo at 5 mg/kg: Rattus norvegicus; for inhibition in vivo at 1 mg/kg: iv; for inhibition in vivo at 5 mg/kg: po
In short: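 Conscious male SHR (16-20 weeks) with aortic and caval cannulae received angiotensin II at 0.05 and 0.1 ug/kg i.v. before and 30-300 min after compound dosing (i.v., i.p. or oral). Blockade is expressed as % of each rat's predose rise in systolic pressure.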

[1] = 1 mg/kg i.v., AII 0.05 mcg/kg IV, 30 min post dose
[2] = 1 mg/kg i.v., AII 0.05 mcg/kg IV, 60 min post dose
[3] = 1 mg/kg i.v., AII 0.05 mcg/kg IV, 90 min post dose
[4] = 1 mg/kg i.v., AII 0.05 mcg/kg IV, 120 min post dose
[5] = 1 mg/kg i.v., AII 0.05 mcg/kg IV, 180 min post dose
[6] = 1 mg/kg i.v., AII 0.05 mcg/kg IV, 240 min post dose
[7] = 1 mg/kg i.v., AII 0.05 mcg/kg IV, 300 min post dose
[8] = 1 mg/kg i.v., AII 0.1 mcg/kg IV, 30 min post dose
[9] = 1 mg/kg i.v., AII 0.1 mcg/kg IV, 60 min post dose
[10] = 1 mg/kg i.v., AII 0.1 mcg/kg IV, 90 min post dose
[11] = 1 mg/kg i.v., AII 0.1 mcg/kg IV, 120 min post dose
[12] = 1 mg/kg i.v., AII 0.1 mcg/kg IV, 180 min post dose
[13] = 1 mg/kg i.v., AII 0.1 mcg/kg IV, 240 min post dose
[14] = 1 mg/kg i.v., AII 0.1 mcg/kg IV, 300 min post dose
[15] = 0.5 h, 1 mg/kg i.v., AII 0.05 mcg/kg IV, 30 min post dose
[16] = 0.5 h, 1 mg/kg i.v., AII 0.1 mcg/kg IV, 30 min post dose
[17] = 1 h, 1 mg/kg i.v., AII 0.05 mcg/kg IV, 60 min post dose
[18] = 1 h, 1 mg/kg i.v., AII 0.1 mcg/kg IV, 60 min post dose
[19] = 2 h, 1 mg/kg i.v., AII 0.05 mcg/kg IV, 120 min post dose
[20] = 2 h, 1 mg/kg i.v., AII 0.1 mcg/kg IV, 120 min post dose
[21] = 3 h, 1 mg/kg i.v., AII 0.05 mcg/kg IV, 180 min post dose
[22] = 3 h, 1 mg/kg i.v., AII 0.1 mcg/kg IV, 180 min post dose
[23] = 4 h, 1 mg/kg i.v., AII 0.05 mcg/kg IV, 240 min post dose
[24] = 4 h, 1 mg/kg i.v., AII 0.1 mcg/kg IV, 240 min post dose
[25] = 5 h, 1 mg/kg i.v., AII 0.05 mcg/kg IV, 300 min post dose
[26] = 5 h, 1 mg/kg i.v., AII 0.1 mcg/kg IV, 300 min post dose
[27] = […], 1 mg/kg i.v., AII 0.05 mcg/kg IV, 90 min post dose
[28] = […], 1 mg/kg i.v., AII 0.1 mcg/kg IV, 90 min post dose

CCCCc1nc2ccc([C@@]3(C)C[C@@H]4CCC(C)(C)N4O3)cc2c(=O)n1Cc1ccc(-c2ccccc2-c2nnn[nH]2)cc1 (relative stereo) [Example 66, Cis-2-Butyl-6-(hexahydro-2,6,6-trimethylpyrrolo[1,2-b]isoxazol-2-yl)-3-[[2'-(1H-tetrazol-5-yl)[1,1'-biphenyl]-4-yl]methyl]-4(3H)-quinazolinone]
Response Average Change [1]: 2.5 mmHg | Response Average Change [2]: 0 mmHg | Response Average Change [3]: 9 mmHg | Response Average Change [4]: 11.5 mmHg | Response Average Change [5]: 15 mmHg | Response Average Change [6]: 12.5 mmHg | Response Average Change [7]: 20 mmHg | Response Average Change [8]: 5 mmHg | Response Average Change [9]: 2.5 mmHg | Response Average Change [10]: 7.5 mmHg | Response Average Change [11]: 7.5 mmHg | Response Average Change [12]: 14 mmHg | Response Average Change [13]: 14 mmHg | Response Average Change [14]: 17.5 mmHg | Response Average Change (5 mg/kg P.O., AII 0.05 mcg/kg IV, 30 min post dose): 10 mmHg | Response Average Change (5 mg/kg P.O., AII 0.05 mcg/kg IV, 60 min post dose): 7.5 mmHg | Response Average Change (5 mg/kg P.O., AII 0.05 mcg/kg IV, 90 min post dose): 3 mmHg | Response Average Change (5 mg/kg P.O., AII 0.05 mcg/kg IV, 120 min post dose): 7.5 mmHg | Response Average Change (5 mg/kg P.O., AII 0.05 mcg/kg IV, 180 min post dose): 5 mmHg | Response Average Change (5 mg/kg P.O., AII 0.05 mcg/kg IV, 240 min post dose): 5 mmHg | Response Average Change (5 mg/kg P.O., AII 0.05 mcg/kg IV, 300 min post dose): 10 mmHg | Response Average Change (5 mg/kg P.O., AII 0.1 mcg/kg IV, 30 min post dose): 21 mmHg | Response Average Change (5 mg/kg P.O., AII 0.1 mcg/kg IV, 60 min post dose): 17.5 mmHg | Response Average Change (5 mg/kg P.O., AII 0.1 mcg/kg IV, 90 min post dose): 2.5 mmHg | Response Average Change (5 mg/kg P.O., AII 0.1 mcg/kg IV, 120 min post dose): 7.5 mmHg | Response Average Change (5 mg/kg P.O., AII 0.1 mcg/kg IV, 180 min post dose): 12.5 mmHg | Response Average Change (5 mg/kg P.O., AII 0.1 mcg/kg IV, 240 min post dose): 10 mmHg | Response Average Change (5 mg/kg P.O., AII 0.1 mcg/kg IV, 300 min post dose): 10 mmHg | inhibition in vivo at 1 mg/kg [15]: 93% | inhibition in vivo at 1 mg/kg [16]: 89% | inhibition in vivo at 1 mg/kg [17]: 100% | inhibition in vivo at 1 mg/kg [18]: 94% | inhibition in vivo at 1 mg/kg [19]: 69% | inhibition in vivo at 1 mg/kg [20]: 83% | inhibition in vivo at 1 mg/kg [21]: 60% | inhibition in vivo at 1 mg/kg [22]: 68% | inhibition in vivo at 1 mg/kg [23]: 67% | inhibition in vivo at 1 mg/kg [24]: 68% | inhibition in vivo at 1 mg/kg [25]: 47% | inhibition in vivo at 1 mg/kg [26]: 60% | inhibition in vivo at 1 mg/kg [27]: 76% | inhibition in vivo at 1 mg/kg [28]: 83% | inhibition in vivo at 5 mg/kg (0.5 h, 5 mg/kg P.O., AII 0.05 mcg/kg IV, 30 min post dose): 77% | inhibition in vivo at 5 mg/kg (0.5 h, 5 mg/kg P.O., AII 0.1 mcg/kg IV, 30 min post dose): 52% | inhibition in vivo at 5 mg/kg (1 h, 5 mg/kg P.O., AII 0.05 mcg/kg IV, 60 min post dose): 83% | inhibition in vivo at 5 mg/kg (1 h, 5 mg/kg P.O., AII 0.1 mcg/kg IV, 60 min post dose): 60% | inhibition in vivo at 5 mg/kg (2 h, 5 mg/kg P.O., AII 0.05 mcg/kg IV, 120 min post dose): 83% | inhibition in vivo at 5 mg/kg (2 h, 5 mg/kg P.O., AII 0.1 mcg/kg IV, 120 min post dose): 83% | inhibition in vivo at 5 mg/kg (3 h, 5 mg/kg P.O., AII 0.05 mcg/kg IV, 180 min post dose): 89% | inhibition in vivo at 5 mg/kg (3 h, 5 mg/kg P.O., AII 0.1 mcg/kg IV, 180 min post dose): 72% | inhibition in vivo at 5 mg/kg (4 h, 5 mg/kg P.O., AII 0.05 mcg/kg IV, 240 min post dose): 89% | inhibition in vivo at 5 mg/kg (4 h, 5 mg/kg P.O., AII 0.1 mcg/kg IV, 240 min post dose): 77% | inhibition in vivo at 5 mg/kg (5 h, 5 mg/kg P.O., AII 0.05 mcg/kg IV, 300 min post dose): 77% | inhibition in vivo at 5 mg/kg (5 h, 5 mg/kg P.O., AII 0.1 mcg/kg IV, 300 min post dose): 77% | inhibition in vivo at 5 mg/kg ([…], 5 mg/kg P.O., AII 0.05 mcg/kg IV, 90 min post dose): 93% | inhibition in vivo at 5 mg/kg ([…], 5 mg/kg P.O., AII 0.1 mcg/kg IV, 90 min post dose): 94%

CCCCc1nc2ccc([C@@]3(CC)C[C@@H]4CCCN4O3)cc2c(=O)n1Cc1ccc(-c2ccccc2-c2nnn[nH]2)cc1 (relative stereo) [Example 71, Cis-2-butyl-6-(2-ethylhexahydropyrrolo[1,2b]isoxazol-2-yl)-3-[[2'-[1-(1H-tetrazol-5-yl)][1,1'-biphenyl]-4-yl]methyl]-4(3H)-quinazolinone]
Response Average Change [1]: 20 mmHg | Response Average Change [2]: 5 mmHg | Response Average Change [3]: 30 mmHg | Response Average Change [4]: 15 mmHg | Response Average Change [5]: 15 mmHg | Response Average Change [6]: 15 mmHg | Response Average Change [7]: 20 mmHg | Response Average Change [8]: 15 mmHg | Response Average Change [9]: 15 mmHg | Response Average Change [10]: 20 mmHg | Response Average Change [11]: 10 mmHg | Response Average Change [12]: 15 mmHg | Response Average Change [13]: 22.5 mmHg | Response Average Change [14]: 23.5 mmHg | inhibition in vivo at 1 mg/kg [15]: 53% | inhibition in vivo at 1 mg/kg [16]: 60% | inhibition in vivo at 1 mg/kg [17]: 88% | inhibition in vivo at 1 mg/kg [18]: 60% | inhibition in vivo at 1 mg/kg [19]: 65% | inhibition in vivo at 1 mg/kg [20]: 73% | inhibition in vivo at 1 mg/kg [21]: 65% | inhibition in vivo at 1 mg/kg [22]: 60% | inhibition in vivo at 1 mg/kg [23]: 65% | inhibition in vivo at 1 mg/kg [24]: 40% | inhibition in vivo at 1 mg/kg [25]: 53% | inhibition in vivo at 1 mg/kg [26]: 37% | inhibition in vivo at 1 mg/kg [27]: 29% | inhibition in vivo at 1 mg/kg [28]: 47%

From US5358951A, “Angiotensin II receptor blocking 2, 3, 6 substituted quinazolinones” (American Cyanamid Company, priority 1993, dated 1994)
